Test systems include SW-620; ACHN; OVCAR-8; SNB-75; CAKI-1; UACC-257; SN12C; SF-539; M14; HCC 2998; RXF 393; OVCAR-3; HL-60; IGROV-1; MOLT-4; SK-MEL-2.
Test in all cases: inhibition of tumour cell growth, NCI panel, 48 h

Molecules are shown by their SMILES.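 Step 1: Grow cells in 96-well plates. Step 2: Expose to compound for 48 hours at 5 concentrations. Step 3: Interpolate endpoints linearly; if unreached, use highest concentration. Here, GI50 denotes the concentration required for 50% inhibition of growth.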 The source made the active and inactive calls. No stated cut-off is given here; in the data, active = GI50 up to about 1.1 µM and inactive = higher.

Here are results for 14 compounds from ChEMBL document CHEMBL1201862, “PubChem BioAssay data set” (2004).

On to `CN(C)C(=S)/N=c1\sn(C)/c(=N\C(=S)N(C)C)n1C`, for which the GI50 in the experiment on SW-620, in the experiment with ACHN, in the experiment with OVCAR-8, with SNB-75, in the experiment on CAKI-1 and in the experiment with UACC-257 was > 100 µM (inactive) each time. For the same compound, the GI50 with SN12C, in the experiment with SF-539, with M14, in the experiment on HCC 2998, in the experiment with RXF 393 and with OVCAR-3 was > 100 µM (inactive) throughout. Also, the GI50 in the experiment on HL-60 was 25.1 µM (inactive); in the experiment with IGROV-1, > 100 µM (inactive); with MOLT-4, > 100 µM (inactive).
As to `O=C1c2cc3c(cc2[C@@H]2NC4CCCC14O2)OCO3` (stereo partly specified), the GI50 in the experiment on SW-620, with ACHN, in the experiment with OVCAR-8, in the experiment with SNB-75, with CAKI-1 and with SK-MEL-2 was > 100 µM (inactive) throughout. The GI50 in the experiment with UACC-257, with SN12C, in the experiment on SF-539, with M14, in the experiment with RXF 393 and in the experiment on OVCAR-3 was > 100 µM (inactive) in each case. Besides, the GI50 in the experiment on HL-60, with IGROV-1 and in the experiment with MOLT-4 was > 100 µM (inactive) throughout.
With `CC[C@@H]1NC(C(=O)OC)Cc2c1[nH]c1ccccc21` (stereo partly specified), the GI50 in the experiment with SW-620, with ACHN, in the experiment with OVCAR-8, in the experiment on SNB-75, in the experiment with CAKI-1 and with SK-MEL-2 was > 100 µM (inactive) throughout. The GI50 with UACC-257, in the experiment on SN12C, with SF-539, in the experiment on M14, in the experiment with HCC 2998 and in the experiment with OVCAR-3 was > 100 µM (inactive) each time. For the same compound, the GI50 in the experiment on HL-60, in the experiment with IGROV-1 and with MOLT-4 was > 100 µM (inactive) each time.
For `C=C(CO)CC(O)c1ccccc1` (stereo unspecified), the GI50 in the experiment with SW-620, with ACHN, in the experiment on OVCAR-8, in the experiment with SNB-75, in the experiment on SK-MEL-2 and with SN12C was > 100 µM (inactive) each time. Moreover, the GI50 in the experiment with SF-539, in the experiment on M14, in the experiment with HCC 2998, with RXF 393, in the experiment on OVCAR-3 and in the experiment on HL-60 was > 100 µM (inactive) in each case. The GI50 with IGROV-1 and in the experiment with MOLT-4 was > 100 µM (inactive) throughout.
Take `CN(C(=O)C12C3(C(=O)C(C)(C)C)C4C5(C#N)C3C1(C(=O)C(C)(C)C)C5C42C(=O)C(C)(C)C)C(C)(C)C` (stereo unspecified): the GI50 in the experiment on SW-620 is > 50 µM (inactive); in the experiment with ACHN, 25.2 µM (inactive); with OVCAR-8 it was > 50 µM (inactive); in the experiment on SNB-75, 8.95 µM (inactive); in the experiment with CAKI-1 it was 33.8 µM (inactive); with UACC-257, 19.6 µM (inactive). In addition, the GI50 with SN12C was > 50 µM (inactive); in the experiment with SF-539, > 50 µM (inactive); in the experiment with M14 it was > 50 µM (inactive); in the experiment with HCC 2998, > 50 µM (inactive); in the experiment on OVCAR-3 it was 38.9 µM (inactive); with HL-60, 16.1 µM (inactive). Moreover, the GI50 in the experiment with IGROV-1 is > 50 µM (inactive); with MOLT-4, 20 µM (inactive).
For the compound `COC(=O)[C@]12CC=C3O[C@@H]4OC5(CCCCC5)O[C@@H]4C3[C@@H]1C(=O)CCC2=O` (stereo partly specified), the GI50 in the experiment with SW-620, with ACHN, in the experiment with OVCAR-8, in the experiment on SNB-75, with CAKI-1 and in the experiment on SK-MEL-2 was > 100 µM (inactive) throughout. Also, the GI50 with UACC-257 is > 100 µM (inactive); in the experiment with SN12C, > 100 µM (inactive); in the experiment on M14 it was > 100 µM (inactive); with HCC 2998 it was > 100 µM (inactive); in the experiment on OVCAR-3, 36.5 µM (inactive); in the experiment with HL-60, > 100 µM (inactive). In addition, the GI50 in the experiment on IGROV-1 and with MOLT-4 was > 100 µM (inactive) in each case.
`Cc1[nH]c2ccccc2c1C1Cc2ccccc2N1C(=O)C#Cc1ccc([N+](=O)[O-])cc1` (stereo unspecified): the GI50 in the experiment with SW-620, in the experiment on ACHN, with OVCAR-8, with SNB-75, with UACC-257 and in the experiment with SN12C was > 100 µM (inactive) each time. For the same compound, the GI50 with SF-539 is > 100 µM (inactive); in the experiment with M14, > 100 µM (inactive); in the experiment on HCC 2998 it was > 100 µM (inactive); in the experiment with RXF 393, 6.81 µM (inactive); with OVCAR-3, > 100 µM (inactive); in the experiment with HL-60 it was > 100 µM (inactive). Moreover, the GI50 with IGROV-1 was > 100 µM (inactive); with MOLT-4, 8.87 µM (inactive).
With `COC(=O)c1ccc(OCc2ccc3nc(OC)c(OC)nc3c2)cc1`, the GI50 in the experiment with SW-620, with ACHN, with OVCAR-8, with SNB-75, with CAKI-1 and in the experiment on SK-MEL-2 was > 100 µM (inactive) each time. Further, the GI50 in the experiment on UACC-257, with SN12C, in the experiment with SF-539, in the experiment with M14, in the experiment with HCC 2998 and in the experiment with OVCAR-3 was > 100 µM (inactive) throughout. The GI50 in the experiment on HL-60 is > 100 µM (inactive); in the experiment on MOLT-4, > 10 µM (inactive).
With `c1cc(-c2cn3c(n2)SCC3)ccn1`, the GI50 with SW-620 is > 25.2 µM (inactive); with ACHN it was > 100 µM (inactive); with OVCAR-8, > 100 µM (inactive); in the experiment with SNB-75, > 100 µM (inactive); in the experiment on CAKI-1, > 100 µM (inactive); in the experiment with SK-MEL-2, > 100 µM (inactive). For the same compound, the GI50 with UACC-257 is > 100 µM (inactive); with SN12C, > 100 µM (inactive); with SF-539, > 44.9 µM (inactive); with M14, > 70.8 µM (inactive); with HCC 2998 it was > 100 µM (inactive); in the experiment on OVCAR-3, > 100 µM (inactive). The values for the GI50 with HL-60, in the experiment on IGROV-1 and in the experiment with MOLT-4 were > 38.1 µM (inactive), > 100 µM (inactive) and > 100 µM (inactive), respectively.
Turning to `O=C(CC1OC(O)C(Cl)=C1Cl)c1cccnc1` (stereo unspecified), the GI50 in the experiment with ACHN was > 31.6 µM (inactive); with OVCAR-8 it was > 100 µM (inactive); with SNB-75 it was > 100 µM (inactive); in the experiment with CAKI-1 it was > 100 µM (inactive); in the experiment with UACC-257, > 100 µM (inactive); in the experiment on SN12C, > 100 µM (inactive). Besides, the GI50 with SF-539 was 0.359 µM (active); in the experiment on M14, > 100 µM (inactive); in the experiment with HCC 2998, > 71.8 µM (inactive); in the experiment with RXF 393, > 100 µM (inactive); in the experiment on OVCAR-3, > 100 µM (inactive); in the experiment with HL-60 it was > 100 µM (inactive). For the same compound, the GI50 in the experiment with IGROV-1 and in the experiment with MOLT-4 was > 100 µM (inactive) each time.
Take `O=C1C2CN(Cc3ccccc3)CC1CN(CC1CC1)C2`: the GI50 with SW-620, with ACHN, with OVCAR-8, in the experiment with SNB-75, in the experiment with CAKI-1 and in the experiment with SK-MEL-2 was > 100 µM (inactive) throughout. For the same compound, the GI50 in the experiment with UACC-257, in the experiment on SN12C, with SF-539, with M14, with RXF 393 and in the experiment on OVCAR-3 was > 100 µM (inactive) throughout. Further, the GI50 in the experiment with HL-60, in the experiment on IGROV-1 and with MOLT-4 was > 100 µM (inactive) in each case.
Take `C=CCONC(=O)c1ccc(Cl)cc1`: the GI50 is > 100 µM (inactive) in the experiment with SW-620; > 100 µM (inactive) with ACHN; > 100 µM (inactive) with OVCAR-8; 84.1 µM (inactive) in the experiment on SNB-75; > 100 µM (inactive) in the experiment with CAKI-1; > 100 µM (inactive) in the experiment on SK-MEL-2. Moreover, the GI50 in the experiment on UACC-257, in the experiment on SN12C, in the experiment with SF-539, in the experiment with M14, in the experiment with HCC 2998 and with RXF 393 was > 100 µM (inactive) throughout. Also, the GI50 with HL-60, with IGROV-1 and with MOLT-4 was > 100 µM (inactive) throughout.
For `CCN(c1ccc(Br)cc1)c1c(Br)c(=O)nc2ccccn12`, the GI50 with SW-620 is > 100 µM (inactive); in the experiment on ACHN, > 100 µM (inactive); in the experiment with OVCAR-8, > 100 µM (inactive); in the experiment with SNB-75, > 100 µM (inactive); in the experiment on CAKI-1, 93.1 µM (inactive); with SK-MEL-2, > 100 µM (inactive). The GI50 in the experiment with SN12C, in the experiment on SF-539, with M14, in the experiment with OVCAR-3, in the experiment with IGROV-1 and in the experiment on MOLT-4 was > 100 µM (inactive) each time.
For the compound `CS(=O)(=O)N(N(CCCl)S(=O)(=O)c1ccccc1)S(C)(=O)=O`, the GI50 in the experiment with SW-620 was > 100 µM (inactive); with ACHN, > 100 µM (inactive); in the experiment on OVCAR-8, > 100 µM (inactive); in the experiment with SNB-75, 50.8 µM (inactive); with CAKI-1 it was > 100 µM (inactive); with SK-MEL-2 it was > 100 µM (inactive). For the same compound, the GI50 is > 100 µM (inactive) with UACC-257; > 100 µM (inactive) with SN12C; 38.5 µM (inactive) in the experiment on SF-539; > 100 µM (inactive) with M14; > 100 µM (inactive) with HCC 2998; > 100 µM (inactive) in the experiment with RXF 393. Besides, the GI50 in the experiment with OVCAR-3, in the experiment on HL-60 and with MOLT-4 was > 100 µM (inactive) each time.
